Values quoted from earlier work as cited in US20170342372A1, “CELL CULTURE MEDIA” (MERCK PATENT GMBH, priority 2014, published 2017).

Settings: water / aqueous solvents

| SMILES | solubility in water (in words) |
| --- | --- |
| N[C@@H](CSSC[C@H](N)C(=O)O)C(=O)O [cystine] | poorly soluble |
| CC(C)[C@H](N)C(=O)O [valine] | moderate solubility |
| CC[C@H](C)[C@H](N)C(=O)O [isoleucine] | moderate solubility |
| CC(C)C[C@H](N)C(=O)O [leucine] | moderate solubility |
